Here are results for 34 molecules from patent US6503912B1, “Substituted guanidine derivatives” (Bayer Aktiengesellschaft, priority 1998, dated 2003).

Data set [1] relates to larvae of the army worm (Spodoptera frugiperda). Put plainly: Spodoptera Frugiperda Test. It is filed as in vivo. Conditions: active compound concentration 0.1%; dipped cabbage leaves; after 7 days. As for the experimental part: Spodoptera Frugiperda Test
(§1) Solvent: 7 parts by weight of dimethylformamide
(§2) Emulsifier: 1 part by weight of alkylaryl polyglycol ether
To produce a suitable preparation of active compound, 1 part by weight of active compound is mixed with the stated amounts of solvent and emulsifier, and the concentrate is diluted with water to the desired concentration.
Cabbage leaves (Brassica oleracea) are treated by being dipped into the preparation of active compound of the desired concentration and are populated with larvae of the army worm (Spodoptera frugiperda) whilst the leaves are still moist.
After the desired period of time, the kill in % is determined. 100% means that all larvae have been killed; 0% means that none of the larvae has been killed.

Data set [2] relates to black bean aphid (Aphis fabae). Put plainly: Aphis Test (Systemic Action). Type of data set: in vivo. Conditions: active compound concentration 0.01%, watering of Vicia faba, after 4 days. As for the experimental part:
Aphis Test (Systemic Action)
as §1, §2
(§3) To produce a suitable preparation of active compound, 1 part by weight of active compound is mixed with the stated amount of solvent, and the stated amount of emulsifier, and the concentrate is diluted with water to the desired concentration.
Bean plants (Vicia faba) which are heavily infested by the black bean aphid (Aphis fabae) are watered with in each case 20 ml of the preparation of active compound of the desired concentration so that the preparation of active compound penetrates into the soil without wetting the shoot. The active compound is taken up by the roots and passed on to the shoot.
(§4) After the desired period of time, the kill in % is determined. 100% means that all aphids have been killed; 0% means that none of the aphids has been killed.

For data set [3], the system named is Aphis fabae. Put plainly: Critical Concentration Test/root-systemic Action. Type of data set: in vivo. As to conditions: 20 ppm in soil; broad beans; leaves populated after 7 days, evaluation after a further 6 days. The procedure:
Critical Concentration Test/root-systemic Action
Solvent: 4 parts by weight of acetone
as §2
To produce a suitable preparation of active compound, 1 part by weight of active compound is mixed with the stated amount of solvent, the stated amount of emulsifier is added and the concentrate is diluted with water to the desired concentration.
The preparation of active compound is mixed intimately with soil. The concentration of the active compound in the preparation is virtually immaterial, only the amount by weight of active compound per volume unit of soil, which is stated in ppm (=mg/l), matters. The treated soil is filled into pots which are planted with pregerminated broad beans. Thus, the active compound can be taken up from the soil by the plant roots and transported into the leaves.
After a further 6 days, evaluation is carried out by counting or estimating the dead animals. The root-systemic action of the active compound is deduced from the number of animals killed. It is 100% when all test animals have been killed and 0% when the number of live test insects is identical to that of the untreated control.

Data set [4] relates to Mosquito larvae (Aedes aegypti). Put plainly: Aedes Test. It is filed as in vivo. Conditions: active compound concentration 0.0016%; after 4 hours. As for the experimental part: Solvent: 1000 parts by weight of methanol
To produce a suitable preparation of active compound, 1 part by weight of active compound is mixed with the stated amount of solvent, and the concentrate is diluted with water to the desired concentrations.
Mosquito larvae (Aedes aegypti) are placed into the preparation of active compound of the desired concentration.
After the desired period of time, the effect on the larvae is determined.

Assay in data set [5]: not given
The source holds these as a separate data set.

In data set [6] the test system is Lucilia cuprina larvae. Kind of data set: Blowfly Larvae Test/development-inhibitory Action. It is filed as in vivo. As to conditions: active compound concentration 100 ppm; flies hatched after 1.5 times the development period of untreated control. The procedure: Blowfly Larvae Test/development-inhibitory Action
Test animals: Lucilia cuprina larvae
Solvent: Dimethyl sulfoxide
20 mg of active compound are dissolved in 1 ml of dimethyl sulfoxide, more dilute concentrations are prepared by dilution with Dest.H2O.
About 20 Lucilia cuprina larvae are introduced into a test tube which contains about 1 cm^3 of horse meat and 0.5 ml of the preparation of active compound to be tested. After 24 hours and 48 hours, the effectiveness of the preparation of active compound is determined. The test tubes are transferred into beakers whose bottom is covered with sand. After a further 2 days, the test tubes are removed and the pupae are counted.
The effect of the preparation of active compound is assessed by the number of flies which have hatched after 1.5 times the development period of an untreated control. 100% means that no flies have hatched; 0% means that all flies have hatched normally.

The subject of data set [7] is peach aphid (Myzus persicae). Put plainly: Myzus Test. Type of data set: in vivo. As to conditions: active compound concentration 0.1%; dipped cabbage leaves; after 6 days. As for the experimental part: as §1, §2, §3
Cabbage leaves (Brassica oleracea) which are heavily infested by the peach aphid (Myzus persicae) are treated by being dipped into the preparation of active compound of the desired concentration.
as §4

For data set [8], the system named is larvae of the green rice leaf-hopper (Nephotettix cincticeps). Kind of data set: Nephotettix Test. Type of data set: in vivo. Conditions: active compound concentration 0.1%; dipped rice seedlings; after 6 days. The procedure:
as §1, §2, §3
Rice seedlings (Oryza sativa) are treated by being dipped into the preparation of active compound of the desired concentration and are populated with larvae of the green rice leaf-hopper (Nephotettix cincticeps) while the seedlings are still moist.
After the desired period of time, the kill in % is determined. 100% means that all leaf-hoppers have been killed; 0% means that none of the leaf-hoppers has been killed.

Data set [9] relates to mustard beetle larvae (Phaedon cochleariae). Put plainly: Phaedon larvae Test. Type of data set: in vivo. As to conditions: active compound concentration 0.1%; dipped cabbage leaves; after 7 days. The procedure:
as §1, §2
To produce a suitable preparation of active compound, 1 part by weight of active compound is mixed with the stated amount of solvent and the stated amount of emulsifier, and the concentrate is diluted with water to the desired concentration.
Cabbage leaves (Brassica oleracea) are treated by being dipped into the preparation of active compound of the desired concentration and are populated with mustard beetle larvae (Phaedon cochleariae) whilst the leaves are still moist.
After the desired period of time, the kill in % is determined. 100% means that all beetle larvae have been killed; 0% means that none of the beetle larvae has been killed.

On to `CC(C)OCN1CCN(Cc2ccc(Cl)nc2)C1=NC#N`, for which the melting point fell in the range of 85 to 87 °C.
In turn, `O=[N+]([O-])/N=c1\n(COCCBr)ccn1Cc1ccc(Cl)nc1` returned a melting point of 90 to 92 °C.
`CCCOCN1CCN(Cc2cnc(Cl)s2)C1=N[N+](=O)[O-]` [Example 2, 1-(2-chloro-thiazol-5-yl-methyl)-2-nitroimino-3-n-propoxymethyl-imidazolidine] came in with a kill in data set [1] of 100%.
`CCCCCCCCOCN1CCN(Cc2ccc(Cl)nc2)C1=N[N+](=O)[O-]` [Example 5]: the kill amounted to 95% in data set [2] and 100% in data set [4]. Moreover, the “kill (root-systemic action)” value in data set [3] is 100%. In addition, the “logP (pH = 2.3)” value in data set [5] was determined as 3.55.
Regarding `CCOCn1ccn(Cc2ccc(Cl)nc2)c1=N[N+](=O)[O-]` [Example 6], in data set [5], the “logP (pH = 2.3)” value stood at 1.09.
On to `CCCCCCCCOCn1ccn(Cc2ccc(Cl)nc2)c1=N[N+](=O)[O-]` [Example 7], for which, in data set [4], the kill amounted to 100%.
In the case of `COCn1ccn(Cc2ccc(Cl)nc2)c1=N[N+](=O)[O-]` [Example 9], the kill in [2] is 100%. The molecule also gave a development-inhibitory effect in [6] of 100%. The “logP (pH = 2.3)” value in data set [5] was found to be 0.78.
On to `CCCOCN1CCN(Cc2ccc(Cl)nc2)C1=N[N+](=O)[O-]` [Example 10], for which the kill in data set [7], in data set [8], in data set [9] and in [1] was 100% in each case. Besides, the development-inhibitory effect in data set [6] was found to be 100%. In addition, in [5], the “logP (pH = 2.3)” value turned out to be 1.64.
In turn, `CCCOCn1ccn(Cc2ccc(Cl)nc2)c1=N[N+](=O)[O-]` [Example 11] came in with a kill in [7] of 100%. The molecule further registered a development-inhibitory effect in data set [6] of 100%.
In the case of `CC(C)OCN1CCN(Cc2ccc(Cl)nc2)C1=N[N+](=O)[O-]` [Example 12], the kill in [7], in [8], in data set [9] and in data set [1] was 100% in each case. The same molecule displayed a development-inhibitory effect in data set [6] of 100%.
As to `CC(C)COCN1CCN(Cc2ccc(Cl)nc2)C1=N[N+](=O)[O-]` [Example 13], the kill in data set [7], in data set [8] and in [1] was 100% throughout. The same molecule yielded a development-inhibitory effect in data set [6] of 100%. Further, the “logP (pH = 2.3)” value in data set [5] came out at 2.00.
On to `CC(C)OCn1ccn(Cc2ccc(Cl)nc2)c1=N[N+](=O)[O-]` [Example 14], for which the kill in data set [7] and in data set [8] was 100% throughout.
In the case of `CC(C)COCn1ccn(Cc2ccc(Cl)nc2)c1=N[N+](=O)[O-]` [Example 15], the kill in data set [7] and in data set [8] was 100% in each case.
As to `COCN1CCN(Cc2cnc(Cl)s2)C1=N[N+](=O)[O-]` [Example 16], in [7], the kill amounted to 100%. In addition, the “logP (pH = 2.3)” value in data set [5] came out at 1.14.
With `CCOCN1CCN(Cc2cnc(Cl)s2)C1=N[N+](=O)[O-]` [Example 17], the kill in data set [7], in data set [9] and in [1] was 100% throughout. Besides, in data set [5], the “logP (pH = 2.3)” value came out at 1.40.
Turning to `CC(C)OCN1CCN(Cc2cnc(Cl)s2)C1=N[N+](=O)[O-]` [Example 18], the kill in data set [7], in [8], in [9] and in [1] was 100% throughout. The “logP (pH = 2.3)” value in data set [5] worked out at 1.65.
`CC(C)COCN1CCN(Cc2cnc(Cl)s2)C1=N[N+](=O)[O-]` [Example 19]: the kill in data set [8] and in [9] was 100% throughout. The “logP (pH = 2.3)” value in data set [5] was 2.12.
For `CC(C)(C)COCN1CCN(Cc2ccc(Cl)nc2)C1=N[N+](=O)[O-]` [Example 20], the kill in [7] and in [1] was 100% in each case.
On to `CCC(C)OCN1CCN(Cc2ccc(Cl)nc2)C1=N[N+](=O)[O-]` (stereo not shown) [Example 21], for which the kill in data set [8] and in data set [9] was 100% each time. In addition, the “logP (pH = 2.3)” value in [5] stood at 1.86.
As to `CCCCCOCN1CCN(Cc2ccc(Cl)nc2)C1=N[N+](=O)[O-]` [Example 22], the “logP (pH = 2.3)” value in data set [5] is recorded as 2.35.
As to `CCCCCCOCN1CCN(Cc2ccc(Cl)nc2)C1=N[N+](=O)[O-]` [Example 23], the “logP (pH = 2.3)” value in [5] amounted to 2.73.
`COCCOCN1CCN(Cc2ccc(Cl)nc2)C1=N[N+](=O)[O-]` [Example 24] gave a kill in data set [8] of 100%. Moreover, the “logP (pH = 2.3)” value in [5] came out at 1.16.
As for `CC(C)(C)C(=O)OCN1CCN(Cc2ccc(Cl)nc2)C1=N[N+](=O)[O-]` [Example 25], the kill in [7], in data set [8], in data set [9] and in [1] was 100% each time.
`COCN1CCN(Cc2ccc(Cl)nc2)C1=NC#N` [Example 29]: in data set [5], the “logP (pH = 2.3)” value came to 1.32.
In the case of `COCCOCN1CCN(Cc2ccc(Cl)nc2)C1=NC#N` [Example 31], in data set [5], the “logP (pH = 2.3)” value is reported as 1.40.
Still for that read-out and setting: the result for `CCCOCN1CCN(Cc2ccc(Cl)nc2)C1=NC#N` [Example 32] reads 1.89.
For `CC(=O)OCN1CCN(Cc2ccc(Cl)nc2)C1=N[N+](=O)[O-]` [Example 33], the kill in data set [8], in data set [9] and in [1] was 100% in each case.
On to `CCC(=O)OCN1CCN(Cc2ccc(Cl)nc2)C1=N[N+](=O)[O-]` [Example 35], for which the kill in [9] and in [1] was 100% in each case. For the same molecule, the “logP (pH = 2.3)” value in [5] turned out to be 1.50.
With `CC(C)C(=O)OCN1CCN(Cc2ccc(Cl)nc2)C1=N[N+](=O)[O-]` [Example 36], the kill in [7], in [8], in [9] and in data set [1] was 100% throughout.
Regarding `CCCCOCN1CCN(Cc2ccc(Cl)nc2)C1=N[N+](=O)[O-]` [Example 40], the “logP (pH = 2.3)” value in data set [5] was found to be 1.98.
In the case of `CCCCOCn1ccn(Cc2ccc(Cl)nc2)c1=N[N+](=O)[O-]` [Example 41], the “logP (pH = 2.3)” value in data set [5] came out at 1.72.
Still for that read-out and setting: the result for `CCN(CC)CCOCN1CCN(Cc2ccc(Cl)nc2)C1=N[N+](=O)[O-]` [Example 43] reads 0.70; that for `O=[N+]([O-])N=C1N(COCCBr)CCN1Cc1ccc(Cl)nc1` [Example 53], 1.64.
On the same count and under the same terms, the result for `CC(C)OCN1CCCN(Cc2ccc(Cl)nc2)C1=N[N+](=O)[O-]` [Example 56] reads 1.34.
